Results published in patent publication US20210137948A1, “TREATMENT OF INFECTIONS CAUSED BY NEISSERIA GONOCOCCUS USING A HALOGENATED SALICYLANILIDE” (priority 2018, published 2021).
In brackets after ≈: the same amount, converted by molar mass. Like-named read-outs stand apart in the source and are kept apart here.

How the values were obtained:
[1] = test system: Neisseria gonorrhoeae CDC panel consisting of 48 isolates; test: Agar dilution MIC, CDC panel of 48 isolates (Example 2); assay type: cell-based; details: for MIC: Neisseria gonorrhoeae, read-out: Minimal inhibitory concentration; for in vitro activity (in words): against N. gonococcus (N. gonorrhoeae), Example 2 conclusion
Protocol: Neisseria gonorrhoeae (Neisseria gonocossus) were tested for antimicrobial susceptibility using agar dilution as described by the Clinical and Laboratory Standards Institute (CLSI), see reference (4).
The concentrations tested for each compound encompass the reported interpretive breakpoints and consist of 8 or more doubling dilutions, ensuring that there is one dilution below the lowest value of QC.
GC agar base +1% defined growth supplement.
Initial screening strains: Neisseria gonorrhoeae CDC panel consisting of 48 isolates. The strains were provided by Clinical and Environmental Microbiology Branch, Division of Healthcare Quality Promotion, CDC (Atlanta, US).
Dilution scheme for reference method: Prepare intermediate 100× antimicrobial agent solutions by making successive serial twofold dilutions. Then, add one part of the 100× antimicrobial solution to […] of molten agar. Plates containing no antimicrobial agent solutions are made for use as growth controls. It is important that no longer than one hour elapses between the time that the stock solution is thawed, the dilutions are prepared and added to the base medium and the plates are poured, see reference (5).
• Add appropriate dilutions of antimicrobial solution to molten test agars that have been allowed to equilibrate in a water bath to 50° C. • Mix the agar and antimicrobial solution thoroughly and pour (20 mL) into Petri dishes on a level surface. Pour quickly after mixing to prevent cooling and partial solidification in the mixing container. Avoid generating bubbles when mixing. • Allow the agar to solidify at room temperature and store them in sealed plastic bags at 2 to 8° C. for up to five days. Preferably use with 24 hours. • Allow plates stored at 2 to 8° C. to equilibrate to room temperature before use. Make certain that the agar surface is dry before inoculating the plates. If necessary, place the plates in an incubator or laminar flow hood for approximately 30 minutes with their lids ajar to hasten drying of the agar surface.
Inoculum preparation: Prepare a standardized inoculum for the agar dilution method by suspending isolated colonies of Neisseria gonorrhoeae selected from an 18-24 hour-old chocolate agar plate directly in Mueller Hinton Broth (MHB) to achieve the density equivalent to a 0.5 McFarland standard and adjusted to obtain a cell density of ˜1-2×10^8 CFU/mL. For N. gonorrhoeae, the McFarland solutions are made at a reading of ˜0.80 in densitometer (Grant Instruments DEN-1B Densitometer) because these values have been evaluated and correspond to the desired CFU/mL count.
Dilution of inoculum suspension: Cultures adjusted to the 0.5 McFarland standard contain approximately 1 to 2×10^8 CFU/mL with most species, and the final inoculum required is 10^4 CFU per spot. When using replicators with 3-mm pins that deliver ˜2.5 μL, dilute the 0.5 McFarland suspension 1:10 in sterile MHB to obtain a concentration of 10^7 CFU/mL. The final inoculum on the agar will be approximately 10^4 CFU per spot. Use the adjusted suspensions for final inoculation within 60 minutes of preparation, see reference (5).
The following procedure was followed: • Arrange the tubes containing the adjusted and diluted bacterial suspensions (10^7 CFU/mL) in order in a rack. Place an aliquot of each well-mixed suspension into the corresponding well in the replicator inoculum block (if being used). • Mark the agar plates for orientation of the inoculum spots. • Apply an aliquot of each inoculum (2.5 μL) to the agar surface, either with an inocula-replicating device or pipette, to obtain a final concentration of ˜10^4 CFU/spot. • Inoculate a growth-control plate (no antimicrobial agent) first and then, starting with the lowest concentration, inoculate the plates containing the different antimicrobial concentrations. […]

[2] = test system: mice; details: cited from earlier work
[3] = test system: rats; details: cited from earlier work; for LD50, median: median of the studies
[4] = test system: rabbits; details: p.o.; cited from earlier work
[5] = Neisseria gonorrhoeae strain CDC # 165
[6] = Neisseria gonorrhoeae strain CDC # 166
[7] = Neisseria gonorrhoeae strain CDC # 167
[8] = Neisseria gonorrhoeae strain CDC # 169
[9] = Neisseria gonorrhoeae strain CDC # 170
[10] = Neisseria gonorrhoeae strain CDC # 171
[11] = Neisseria gonorrhoeae strain CDC # 172
[12] = Neisseria gonorrhoeae strain CDC # 173
[13] = Neisseria gonorrhoeae strain CDC # 174
[14] = Neisseria gonorrhoeae strain CDC # 175
[15] = Neisseria gonorrhoeae strain CDC # 176
[16] = Neisseria gonorrhoeae strain CDC # 177
[17] = Neisseria gonorrhoeae strain CDC # 178
[18] = Neisseria gonorrhoeae strain CDC # 179
[19] = Neisseria gonorrhoeae strain CDC # 180
[20] = Neisseria gonorrhoeae strain CDC # 181
[21] = Neisseria gonorrhoeae strain CDC # 182
[22] = Neisseria gonorrhoeae strain CDC # 183
[23] = Neisseria gonorrhoeae strain CDC # 184
[24] = Neisseria gonorrhoeae strain CDC # 185
[25] = Neisseria gonorrhoeae strain CDC # 186
[26] = Neisseria gonorrhoeae strain CDC # 187
[27] = Neisseria gonorrhoeae strain CDC # 188
[28] = Neisseria gonorrhoeae strain CDC # 189
[29] = Neisseria gonorrhoeae strain CDC # 190
[30] = Neisseria gonorrhoeae strain CDC # 191
[31] = Neisseria gonorrhoeae strain CDC # 192
[32] = Neisseria gonorrhoeae strain CDC # 193
[33] = Neisseria gonorrhoeae strain CDC # 194
[34] = Neisseria gonorrhoeae strain CDC # 195
[35] = Neisseria gonorrhoeae strain CDC # 196
[36] = Neisseria gonorrhoeae strain CDC # 198
[37] = Neisseria gonorrhoeae strain CDC # 199
[38] = Neisseria gonorrhoeae strain CDC # 200
[39] = Neisseria gonorrhoeae strain CDC # 201
[40] = Neisseria gonorrhoeae strain CDC # 202
[41] = Neisseria gonorrhoeae strain CDC # 203
[42] = Neisseria gonorrhoeae strain CDC # 204
[43] = Neisseria gonorrhoeae strain CDC # 205
[44] = Neisseria gonorrhoeae strain CDC # 206
[45] = Neisseria gonorrhoeae strain CDC # 207
[46] = Neisseria gonorrhoeae strain CDC # 208
[47] = Neisseria gonorrhoeae strain CDC # 209
[48] = Neisseria gonorrhoeae strain CDC # 210
[49] = Neisseria gonorrhoeae strain CDC # 211
[50] = Neisseria gonorrhoeae strain CDC # 212
[51] = Neisseria gonorrhoeae strain CDC # 213
[52] = Neisseria gonorrhoeae strain CDC # 214

In the case of `Cc1cc(C(C#N)c2ccc(Cl)cc2)c(Cl)cc1NC(=O)c1cc(I)cc(I)c1O` (centres unmarked) [Closantel, closantel], the MIC [1, 5] is reported as 8 µg/mL (≈ 12.1 µM), the MIC [1, 6] is reported as no more than 0.25 µg/mL and the MIC [1, 7] is reported as no more than 0.25 µg/mL. For the same compound, the MIC [1, 8] was no more than 0.25 µg/mL, the MIC [1, 9] was no more than 0.25 µg/mL and the MIC [1, 10] was no more than 0.25 µg/mL. It also gave an MIC [1, 11] of no more than 0.25 µg/mL, an MIC [1, 12] of 0.5 µg/mL (≈ 0.754 µM) and an MIC [1, 13] of no more than 0.25 µg/mL. The MIC [1, 14] was no more than 0.25 µg/mL, the MIC [1, 15] was no more than 0.25 µg/mL and the MIC [1, 16] was 4 µg/mL (≈ 6.03 µM). The MIC [1, 17] was no more than 0.25 µg/mL, the MIC [1, 18] was no more than 0.25 µg/mL and the MIC [1, 19] was no more than 0.25 µg/mL. It also gave an MIC [1, 20] of no more than 0.25 µg/mL, an MIC [1, 21] of no more than 0.25 µg/mL and an MIC [1, 22] of no more than 0.25 µg/mL. For the same compound, the MIC [1, 23] was no more than 0.25 µg/mL, the MIC [1, 24] was no more than 0.25 µg/mL and the MIC [1, 25] was no more than 0.25 µg/mL. The MIC [1, 26] was no more than 0.25 µg/mL, the MIC [1, 27] was no more than 0.25 µg/mL and the MIC [1, 28] was no more than 0.25 µg/mL. It also gave an MIC [1, 29] of no more than 0.25 µg/mL, an MIC [1, 30] of no more than 0.25 µg/mL and an MIC [1, 31] of no more than 0.25 µg/mL. For the same compound, the MIC [1, 32] was no more than 0.25 µg/mL, the MIC [1, 33] was no more than 0.25 µg/mL and the MIC [1, 34] was no more than 0.25 µg/mL. The MIC [1, 35] was no more than 0.25 µg/mL, the MIC [1, 36] was no more than 0.25 µg/mL and the MIC [1, 37] was no more than 0.25 µg/mL. It also gave an MIC [1, 38] of no more than 0.25 µg/mL, an MIC [1, 39] of no more than 0.25 µg/mL and an MIC [1, 40] of no more than 0.25 µg/mL. The MIC [1, 41] was no more than 0.25 µg/mL, the MIC [1, 42] was 0.5 µg/mL (≈ 0.754 µM) and the MIC [1, 43] was no more than 0.25 µg/mL. The MIC [1, 44] was no more than 0.25 µg/mL, the MIC [1, 45] was no more than 0.25 µg/mL and the MIC [1, 46] was no more than 0.25 µg/mL. It also gave an MIC [1, 47] of no more than 0.25 µg/mL, an MIC [1, 48] of no more than 0.25 µg/mL and an MIC [1, 49] of no more than 0.25 µg/mL. It also gave an MIC [1, 50] of no more than 0.25 µg/mL, an MIC [1, 51] of no more than 0.25 µg/mL and an MIC [1, 52] of no more than 0.25 µg/mL. For the same compound, the “in vitro activity (in words)” value [1] was “Good in vitro activity”, the LD50 ([2]; i.m.) was 57 mg/kg and the LD50 ([2]; p.o.) was 331 mg/kg. For the same compound, the “LD50, median” value ([3]; p.o.) was 302 mg/kg, the LD50 ([3]; p.o.) was 262 to 342 mg/kg and the LD50 ([3]; s.c.) was 67 mg/kg.
For `O=C(Nc1cc(Cl)cc(Cl)c1O)c1c(O)c(Cl)cc(Cl)c1Cl` [Oxyclosanide, oxyclozanide], the MIC [1, 5] was no more than 0.25 µg/mL, the MIC [1, 6] was no more than 0.25 µg/mL and the MIC [1, 7] was no more than 0.25 µg/mL. The MIC [1, 8] was no more than 0.25 µg/mL, the MIC [1, 9] was no more than 0.25 µg/mL and the MIC [1, 10] was no more than 0.25 µg/mL. The MIC [1, 11] was no more than 0.25 µg/mL, the MIC [1, 12] was no more than 0.25 µg/mL and the MIC [1, 13] was no more than 0.25 µg/mL. It also gave an MIC [1, 14] of no more than 0.25 µg/mL, an MIC [1, 15] of no more than 0.25 µg/mL and an MIC [1, 16] of no more than 0.25 µg/mL. The MIC [1, 17] was no more than 0.25 µg/mL, the MIC [1, 18] was no more than 0.25 µg/mL and the MIC [1, 19] was no more than 0.25 µg/mL. It also gave an MIC [1, 20] of no more than 0.25 µg/mL, an MIC [1, 21] of no more than 0.25 µg/mL and an MIC [1, 22] of no more than 0.25 µg/mL. For the same compound, the MIC [1, 23] was no more than 0.25 µg/mL, the MIC [1, 24] was no more than 0.25 µg/mL and the MIC [1, 25] was no more than 0.25 µg/mL. The MIC [1, 26] was no more than 0.25 µg/mL, the MIC [1, 27] was no more than 0.25 µg/mL and the MIC [1, 28] was no more than 0.25 µg/mL. For the same compound, the MIC [1, 29] was no more than 0.25 µg/mL, the MIC [1, 30] was no more than 0.25 µg/mL and the MIC [1, 31] was no more than 0.25 µg/mL. It also gave an MIC [1, 32] of no more than 0.25 µg/mL, an MIC [1, 33] of no more than 0.25 µg/mL and an MIC [1, 34] of no more than 0.25 µg/mL. It also gave an MIC [1, 35] of no more than 0.25 µg/mL, an MIC [1, 36] of no more than 0.25 µg/mL and an MIC [1, 37] of no more than 0.25 µg/mL. The MIC [1, 38] was no more than 0.25 µg/mL, the MIC [1, 39] was no more than 0.25 µg/mL and the MIC [1, 40] was no more than 0.25 µg/mL. It also gave an MIC [1, 41] of no more than 0.25 µg/mL, an MIC [1, 42] of no more than 0.25 µg/mL and an MIC [1, 43] of no more than 0.25 µg/mL. The MIC [1, 44] was no more than 0.25 µg/mL, the MIC [1, 45] was no more than 0.25 µg/mL and the MIC [1, 46] was no more than 0.25 µg/mL. For the same compound, the MIC [1, 47] was no more than 0.25 µg/mL, the MIC [1, 48] was no more than 0.25 µg/mL and the MIC [1, 49] was no more than 0.25 µg/mL. The MIC [1, 50] was no more than 0.25 µg/mL, the MIC [1, 51] was no more than 0.25 µg/mL and the MIC [1, 52] was no more than 0.25 µg/mL. The “in vitro activity (in words)” value [1] was “Good in vitro activity”, the LD50 [4] was 3200 mg/kg and the LD50 ([2]; p.o.) was 300 mg/kg. The “LD50, median” value ([3]; p.o.) was 2250 mg/kg and the LD50 ([3]; p.o.) was 980 to 3519 mg/kg.
